Measurements reported in article PMC11981944 (Nature, 2025).
Like-named read-outs stand apart in the source and are kept apart here.

What was measured:
SARS-CoV-2 = assay type: cell-based
SARS-CoV-2 B.1.351 = assay type: in vivo; settings: SCID mice, no ritonavir
SARS-CoV-2 USA-WA1/2020 = test system: SARS-CoV-2 USA-WA1/2020; set-up: species or system Syrian hamsters (Mesocricetus auratus); settings: hamster, in vivo
[1] = test system: SARS-CoV-2 (strain BavPat1/2020); assay type: cell-based

SMILES | antiviral activity (in words) (SARS-CoV-2) | antiviral activity in vivo (in words) (SARS-CoV-2 B.1.351; 100 mg per kg twice a day) | antiviral activity in vivo (in words) (SARS-CoV-2 B.1.351; three-fold higher dose (300 mg per kg twice a day)) | lung parenchyma histology (in words) (SARS-CoV-2 USA-WA1/2020) | DMVs by TEM (in words) [1]
N#C[C@@]1(c2ccc3c(N)ncnn23)O[C@H](CO)[C@@H](O)[C@H]1O [GS-441524] | micromolar range | – | – | – | –
CC(C)(C)[C@H](NC(=O)C(F)(F)F)C(=O)N1C[C@H]2[C@@H]([C@H]1C(=O)N[C@H](C#N)C[C@@H]1CCNC1=O)C2(C)C [Nirmatrelvir] | – | devoid of antiviral activity | effective | nearly normal | no cells producing DMV clusters, virions or concentric membrane stacks could be detected
